The target in assay [1] is High affinity nerve growth factor receptor (Homo sapiens) (UniProt P04629). Kind of assay: Inhibition of TRKA (unknown origin) at 1 uM by Ambit Kinomescan binding assay relative to control.
The test system of assay [2] is Receptor-type tyrosine-protein kinase FLT3 (Homo sapiens), P36888 [N841I]. Nature of the assay: Inhibition of FLT3 N841I mutant (unknown origin) at 1 uM by Ambit Kinomescan binding assay relative to control; values are per cent of control.
Assay [3] has as its target Proto-oncogene tyrosine-protein kinase Src (Homo sapiens, UniProt P12931). Nature of the assay: Inhibition of SRC (unknown origin) at 1 uM by Ambit Kinomescan binding assay relative to control.
The target of assay [4] is T1, Aurora kinase C (Homo sapiens) (UniProt Q9UQB9).
T1 sequence (whole entry): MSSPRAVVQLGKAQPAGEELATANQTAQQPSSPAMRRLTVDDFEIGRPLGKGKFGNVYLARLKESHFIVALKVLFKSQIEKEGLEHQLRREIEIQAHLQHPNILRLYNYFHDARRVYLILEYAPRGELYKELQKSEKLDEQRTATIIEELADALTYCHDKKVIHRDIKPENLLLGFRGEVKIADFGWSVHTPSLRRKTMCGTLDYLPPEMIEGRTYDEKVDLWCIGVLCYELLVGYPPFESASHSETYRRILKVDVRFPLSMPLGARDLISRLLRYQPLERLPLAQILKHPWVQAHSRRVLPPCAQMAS
Kind of assay: Inhibition of AURKC (unknown origin) at 1 uM by Ambit Kinomescan binding assay relative to control; values are per cent of control.

The target of assay [5] is MAP kinase-activated protein kinase 2 (Homo sapiens) (UniProt P49137). Nature of the assay: Inhibition of MAPKAPK2 (unknown origin) at 1 uM by Ambit Kinomescan binding assay relative to control.
In assay [6] the target is Wee1-like protein kinase (Homo sapiens) (UniProt P30291). Nature of the assay: Inhibition of WEE1 (unknown origin) at 10 uM by Ambit Kinomescan binding assay.
Assay [7] concerns the target Focal adhesion kinase 1 (Homo sapiens) (UniProt Q05397). Kind of assay: Inhibition of FAK K1 labeling site in human Huh-7 cells at 10 uM by KiNativ Profiling analysis relative to control. The class given is cell-based.
In assay [8] the target is Calcium/calmodulin-dependent protein kinase type II subunit gamma (Homo sapiens) (UniProt Q13555). Nature of the assay: Inhibition of CaMK2g K1 labeling site in human Huh-7 cells at 1 uM by KiNativ Profiling analysis relative to control. The class given is cell-based.
Assay [9] deals with Myosin light chain kinase (Homo sapiens) (UniProt Q32MK0). Nature of the assay: Inhibition of MLCK (unknown origin) at 10 uM by Ambit Kinomescan binding assay.
Assay [10] concerns the target T2, Mitogen-activated protein kinase kinase kinase 7 (Homo sapiens) (UniProt O43318).
T2 sequence (whole entry): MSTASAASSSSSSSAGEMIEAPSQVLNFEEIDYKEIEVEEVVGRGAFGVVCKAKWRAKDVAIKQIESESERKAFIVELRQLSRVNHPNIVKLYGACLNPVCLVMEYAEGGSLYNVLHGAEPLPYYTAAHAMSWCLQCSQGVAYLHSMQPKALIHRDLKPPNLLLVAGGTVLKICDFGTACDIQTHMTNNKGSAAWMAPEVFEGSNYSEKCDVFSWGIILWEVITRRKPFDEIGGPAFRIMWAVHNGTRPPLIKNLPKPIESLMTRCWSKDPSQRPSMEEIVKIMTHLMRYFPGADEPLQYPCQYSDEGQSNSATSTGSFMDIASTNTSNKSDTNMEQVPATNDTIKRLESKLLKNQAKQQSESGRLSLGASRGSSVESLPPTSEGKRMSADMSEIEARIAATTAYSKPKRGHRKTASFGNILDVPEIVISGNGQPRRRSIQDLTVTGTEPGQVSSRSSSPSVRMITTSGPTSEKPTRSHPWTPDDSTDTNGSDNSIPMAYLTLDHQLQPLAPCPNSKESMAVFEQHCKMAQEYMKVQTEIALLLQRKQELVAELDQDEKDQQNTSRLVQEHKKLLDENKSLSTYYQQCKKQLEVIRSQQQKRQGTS
Kind of assay: Inhibition of TAK1 Lys2 labeling site in human A-375 cells at 5 uM by KiNativ Profiling analysis relative to control. The class given is cell-based.

Assay [11] has as its target Serine/threonine-protein kinase Aurora (Homo sapiens) (UniProt Q96GD4+Q9UQB9+O14965). Nature of the assay: Inhibition of AurA/B/C ATP labeling site in human Huh-7 cells at 10 uM by KiNativ Profiling analysis relative to control. The class given is cell-based.
In assay [12] the target is TRAF2 and NCK-interacting protein kinase (Homo sapiens) (UniProt Q9UKE5). Nature of the assay: Inhibition of ZC2/TNIK Lys2 labeling site in human Huh-7 cells at 1 uM by KiNativ Profiling analysis relative to control. The class given is cell-based.
Assay [13] has as its target T3, Phosphatidylinositol 5-phosphate 4-kinase type-2 gamma (Homo sapiens) (UniProt Q8TBX8).
T3 sequence (whole entry): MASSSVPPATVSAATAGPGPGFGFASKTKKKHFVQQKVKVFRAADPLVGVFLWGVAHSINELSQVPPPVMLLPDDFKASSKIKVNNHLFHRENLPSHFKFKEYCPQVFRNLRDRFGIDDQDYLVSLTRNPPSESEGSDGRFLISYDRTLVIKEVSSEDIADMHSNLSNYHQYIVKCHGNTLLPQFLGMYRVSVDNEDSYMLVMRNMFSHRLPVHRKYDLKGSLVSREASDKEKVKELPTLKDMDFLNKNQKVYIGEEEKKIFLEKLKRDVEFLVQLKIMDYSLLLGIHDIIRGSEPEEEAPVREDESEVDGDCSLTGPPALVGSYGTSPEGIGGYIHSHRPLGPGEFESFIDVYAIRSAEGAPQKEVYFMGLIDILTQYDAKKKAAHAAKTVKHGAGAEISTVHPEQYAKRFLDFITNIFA
Kind of assay: Inhibition of PIP4K2C ATP labeling site harbouring TLVIKEVSSEDIADMHSNLSNYHQYIVK in human Huh-7 cells at 1 uM by KiNativ Profiling analysis relative to control. The class given is cell-based.

Activity calls are given as the source filed them. The calls are words filed in the database; no cut-off is given here. Some results are limits rather than exact numbers.

High affinity nerve growth factor receptor (Homo sapiens), sequence (P04629 33-796 limits assumed): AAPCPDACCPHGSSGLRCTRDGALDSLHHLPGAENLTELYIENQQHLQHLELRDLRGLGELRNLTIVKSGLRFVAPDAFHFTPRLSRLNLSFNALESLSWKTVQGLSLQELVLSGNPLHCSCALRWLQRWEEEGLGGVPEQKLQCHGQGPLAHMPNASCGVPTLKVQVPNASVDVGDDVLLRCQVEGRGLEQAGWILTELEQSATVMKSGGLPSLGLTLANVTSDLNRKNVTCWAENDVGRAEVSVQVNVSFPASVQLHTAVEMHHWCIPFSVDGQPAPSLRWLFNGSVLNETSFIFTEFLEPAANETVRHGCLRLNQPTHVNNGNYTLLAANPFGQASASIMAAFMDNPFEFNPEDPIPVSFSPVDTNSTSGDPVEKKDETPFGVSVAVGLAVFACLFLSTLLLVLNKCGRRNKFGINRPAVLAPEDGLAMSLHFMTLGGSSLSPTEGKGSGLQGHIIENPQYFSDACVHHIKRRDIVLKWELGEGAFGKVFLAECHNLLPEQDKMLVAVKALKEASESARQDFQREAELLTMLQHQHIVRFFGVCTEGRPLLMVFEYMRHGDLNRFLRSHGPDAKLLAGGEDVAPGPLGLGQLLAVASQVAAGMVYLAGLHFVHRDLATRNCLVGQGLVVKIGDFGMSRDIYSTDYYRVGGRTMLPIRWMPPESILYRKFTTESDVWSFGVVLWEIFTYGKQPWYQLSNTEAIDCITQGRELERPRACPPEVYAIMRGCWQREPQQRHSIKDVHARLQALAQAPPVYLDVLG
Wee1-like protein kinase (Homo sapiens), sequence (P30291 whole entry, looked up): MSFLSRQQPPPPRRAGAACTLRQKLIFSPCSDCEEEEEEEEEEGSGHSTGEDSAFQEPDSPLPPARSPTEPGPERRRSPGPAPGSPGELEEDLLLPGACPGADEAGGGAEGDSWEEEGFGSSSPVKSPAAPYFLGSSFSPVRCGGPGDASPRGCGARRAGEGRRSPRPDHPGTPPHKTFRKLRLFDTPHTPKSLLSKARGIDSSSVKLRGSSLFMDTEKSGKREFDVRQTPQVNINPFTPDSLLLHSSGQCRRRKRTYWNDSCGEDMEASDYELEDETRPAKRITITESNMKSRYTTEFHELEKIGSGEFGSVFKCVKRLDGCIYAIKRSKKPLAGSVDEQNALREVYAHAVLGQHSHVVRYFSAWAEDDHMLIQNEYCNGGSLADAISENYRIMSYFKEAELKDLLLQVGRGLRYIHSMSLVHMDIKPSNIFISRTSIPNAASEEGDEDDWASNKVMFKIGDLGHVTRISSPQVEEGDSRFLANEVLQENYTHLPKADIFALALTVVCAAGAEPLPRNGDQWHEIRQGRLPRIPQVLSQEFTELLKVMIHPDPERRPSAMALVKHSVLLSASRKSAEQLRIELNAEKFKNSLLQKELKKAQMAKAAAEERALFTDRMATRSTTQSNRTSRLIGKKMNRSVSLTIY
TRAF2 and NCK-interacting protein kinase (Homo sapiens), sequence (Q9UKE5 whole entry, looked up): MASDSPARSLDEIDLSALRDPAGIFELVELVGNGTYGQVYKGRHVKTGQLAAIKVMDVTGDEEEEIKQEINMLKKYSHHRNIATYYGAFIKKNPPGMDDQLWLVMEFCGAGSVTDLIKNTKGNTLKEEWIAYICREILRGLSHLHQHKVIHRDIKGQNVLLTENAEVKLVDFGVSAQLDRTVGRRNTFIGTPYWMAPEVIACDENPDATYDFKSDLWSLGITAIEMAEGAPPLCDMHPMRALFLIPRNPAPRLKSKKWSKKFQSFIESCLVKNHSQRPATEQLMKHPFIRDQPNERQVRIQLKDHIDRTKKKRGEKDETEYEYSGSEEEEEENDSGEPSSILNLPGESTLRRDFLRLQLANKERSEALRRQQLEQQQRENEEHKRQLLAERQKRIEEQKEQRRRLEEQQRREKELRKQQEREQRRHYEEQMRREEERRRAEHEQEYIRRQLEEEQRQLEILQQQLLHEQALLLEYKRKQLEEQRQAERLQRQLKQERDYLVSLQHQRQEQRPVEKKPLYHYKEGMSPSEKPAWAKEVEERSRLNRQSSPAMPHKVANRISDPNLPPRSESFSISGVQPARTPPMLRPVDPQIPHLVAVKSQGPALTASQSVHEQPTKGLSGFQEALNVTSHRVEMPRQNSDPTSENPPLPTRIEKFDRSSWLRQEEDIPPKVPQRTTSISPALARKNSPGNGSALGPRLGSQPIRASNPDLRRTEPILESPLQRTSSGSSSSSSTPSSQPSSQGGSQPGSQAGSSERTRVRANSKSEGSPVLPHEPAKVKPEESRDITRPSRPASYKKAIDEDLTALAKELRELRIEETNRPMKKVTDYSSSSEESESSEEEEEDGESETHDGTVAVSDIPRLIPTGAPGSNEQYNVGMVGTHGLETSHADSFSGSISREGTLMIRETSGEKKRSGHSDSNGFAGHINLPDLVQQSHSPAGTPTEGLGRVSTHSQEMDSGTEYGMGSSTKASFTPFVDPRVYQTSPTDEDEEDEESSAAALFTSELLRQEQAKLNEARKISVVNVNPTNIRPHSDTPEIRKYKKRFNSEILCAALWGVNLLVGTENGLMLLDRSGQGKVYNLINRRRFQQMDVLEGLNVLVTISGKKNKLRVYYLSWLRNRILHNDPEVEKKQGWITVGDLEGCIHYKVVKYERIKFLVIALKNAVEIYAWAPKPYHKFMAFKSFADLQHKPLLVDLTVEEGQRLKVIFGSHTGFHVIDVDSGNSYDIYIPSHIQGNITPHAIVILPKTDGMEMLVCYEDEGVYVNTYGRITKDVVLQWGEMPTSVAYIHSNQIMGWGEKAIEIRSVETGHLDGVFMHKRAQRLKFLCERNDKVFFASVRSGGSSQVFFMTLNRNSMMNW
Focal adhesion kinase 1 (Homo sapiens), sequence (Q05397 2-1052 limits assumed): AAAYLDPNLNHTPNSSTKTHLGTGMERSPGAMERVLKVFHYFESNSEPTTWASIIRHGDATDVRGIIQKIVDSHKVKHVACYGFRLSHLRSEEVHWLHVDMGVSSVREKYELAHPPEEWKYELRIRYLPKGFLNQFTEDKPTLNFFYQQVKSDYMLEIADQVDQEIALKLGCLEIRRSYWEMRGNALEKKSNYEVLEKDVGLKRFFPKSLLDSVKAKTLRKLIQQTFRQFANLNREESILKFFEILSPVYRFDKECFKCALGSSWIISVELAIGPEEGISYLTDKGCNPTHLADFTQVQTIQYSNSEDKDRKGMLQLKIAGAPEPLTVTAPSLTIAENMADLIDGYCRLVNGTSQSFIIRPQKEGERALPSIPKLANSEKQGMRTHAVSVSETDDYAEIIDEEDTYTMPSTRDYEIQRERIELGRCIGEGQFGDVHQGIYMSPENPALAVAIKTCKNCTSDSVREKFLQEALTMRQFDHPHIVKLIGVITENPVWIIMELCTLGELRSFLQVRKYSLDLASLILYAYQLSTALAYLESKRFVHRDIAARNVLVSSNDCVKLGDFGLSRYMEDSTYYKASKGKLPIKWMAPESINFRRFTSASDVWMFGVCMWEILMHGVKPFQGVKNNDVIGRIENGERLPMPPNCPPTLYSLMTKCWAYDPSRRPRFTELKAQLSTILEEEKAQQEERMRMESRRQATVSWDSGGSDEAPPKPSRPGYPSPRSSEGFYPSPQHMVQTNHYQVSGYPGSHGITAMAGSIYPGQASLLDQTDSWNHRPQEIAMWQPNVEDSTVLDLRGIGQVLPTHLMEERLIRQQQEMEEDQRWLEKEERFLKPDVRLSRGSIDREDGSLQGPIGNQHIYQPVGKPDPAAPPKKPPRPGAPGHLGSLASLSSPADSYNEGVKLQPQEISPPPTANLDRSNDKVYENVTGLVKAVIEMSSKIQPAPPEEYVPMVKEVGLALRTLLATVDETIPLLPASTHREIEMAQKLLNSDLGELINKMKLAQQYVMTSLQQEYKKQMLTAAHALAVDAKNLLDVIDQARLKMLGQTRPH
MAP kinase-activated protein kinase 2 (Homo sapiens), sequence (P49137 whole entry, looked up): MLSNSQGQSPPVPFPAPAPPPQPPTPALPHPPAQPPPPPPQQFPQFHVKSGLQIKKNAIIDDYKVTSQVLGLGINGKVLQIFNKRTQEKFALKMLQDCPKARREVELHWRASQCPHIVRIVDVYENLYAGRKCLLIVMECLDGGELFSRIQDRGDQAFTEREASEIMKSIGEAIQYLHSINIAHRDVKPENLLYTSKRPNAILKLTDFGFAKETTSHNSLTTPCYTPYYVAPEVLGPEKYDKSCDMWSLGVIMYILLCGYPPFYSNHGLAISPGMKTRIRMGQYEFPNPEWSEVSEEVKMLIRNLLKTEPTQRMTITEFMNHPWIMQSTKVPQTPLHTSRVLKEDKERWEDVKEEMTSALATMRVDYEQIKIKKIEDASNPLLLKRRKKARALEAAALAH
Myosin light chain kinase (Homo sapiens), sequence (Q32MK0 whole entry): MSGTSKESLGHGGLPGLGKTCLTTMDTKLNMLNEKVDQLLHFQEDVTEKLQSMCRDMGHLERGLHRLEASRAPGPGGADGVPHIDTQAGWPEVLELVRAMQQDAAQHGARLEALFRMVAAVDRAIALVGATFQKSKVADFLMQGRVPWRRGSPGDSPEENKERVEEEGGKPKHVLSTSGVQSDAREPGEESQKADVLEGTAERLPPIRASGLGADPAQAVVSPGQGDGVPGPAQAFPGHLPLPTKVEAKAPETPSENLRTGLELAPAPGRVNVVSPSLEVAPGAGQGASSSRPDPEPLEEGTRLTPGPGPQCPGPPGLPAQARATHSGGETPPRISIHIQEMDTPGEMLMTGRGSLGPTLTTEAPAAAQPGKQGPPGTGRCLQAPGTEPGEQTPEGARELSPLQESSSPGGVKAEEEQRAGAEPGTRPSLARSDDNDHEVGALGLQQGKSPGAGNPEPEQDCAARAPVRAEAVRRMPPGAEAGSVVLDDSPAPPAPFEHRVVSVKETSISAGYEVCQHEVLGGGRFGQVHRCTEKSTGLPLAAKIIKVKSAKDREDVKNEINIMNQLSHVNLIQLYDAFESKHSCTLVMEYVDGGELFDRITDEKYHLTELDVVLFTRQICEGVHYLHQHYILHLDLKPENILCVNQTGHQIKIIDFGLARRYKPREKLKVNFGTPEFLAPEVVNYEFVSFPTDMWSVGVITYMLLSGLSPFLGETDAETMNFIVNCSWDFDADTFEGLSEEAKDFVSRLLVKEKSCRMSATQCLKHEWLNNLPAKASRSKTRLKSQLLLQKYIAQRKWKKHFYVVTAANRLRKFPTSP

One may read the inhibition as the relative decrease from the control value, in per cent. A word on the residual activity: it is the activity still measured, relative to the control. Lower therefore signals a large loss of activity. Take `CCN1CCN(Cc2ccc(NC(=O)c3ccc(C)c(/C=C/c4cnc5[nH]ccc5c4OC)c3)cc2C(F)(F)F)CC1`: the inhibition in [1] came to 54%; in [3], 2.8%; in assay [5], 100%. The residual activity was found to be 2.3% in [2] and 34% in assay [4].
As for `CCN1CCN(Cc2ccc(NC(=O)c3ccc(C)c(Oc4ccnc5[nH]ccc45)c3)cc2C(F)(F)F)CC1`, the inhibition entry in assay [6] and in assay [9] was “inactive” throughout. The inhibition in assay [7] was 13%; in assay [8] it was -7.7%; in [10] it was greater than 95%; in assay [11] it was 4.1%.
With `CNc1cc(Oc2cc(C(=O)Nc3cc(N4CCN(C)CC4)cc(C(F)(F)F)c3)ccc2C)ncn1`, the values for the inhibition in assay [12] and in assay [13] were 9.7% and 12.8%, respectively.

The record behind these values is ChEMBL document CHEMBL5696442, “Discovery of type II inhibitors of TGFβ-activated kinase 1 (TAK1) and mitogen-activated protein kinase kinase kinase kinase 2 (MAP4K2)” (J Med Chem, 2015).
